Target: Plasma kallikrein (Homo sapiens, UniProt P03952)
Assay: Inhibitory Activity In Vitro Assay : Plasma kallikrein inhibitory activity in vitro was determined using standard published methods. Human plasma kallikrein (Protogen) was incubated at 25° C. with the fluorogenic substrate H-DPro-Phe-Arg-AFC and various concentrations of the test compound. Residual enzyme activity (initial rate of reaction) was determined by measuring the change in […] and the IC50 value for the test compound was determined.

Chain of Plasma kallikrein (P03952 20-390 limits assumed): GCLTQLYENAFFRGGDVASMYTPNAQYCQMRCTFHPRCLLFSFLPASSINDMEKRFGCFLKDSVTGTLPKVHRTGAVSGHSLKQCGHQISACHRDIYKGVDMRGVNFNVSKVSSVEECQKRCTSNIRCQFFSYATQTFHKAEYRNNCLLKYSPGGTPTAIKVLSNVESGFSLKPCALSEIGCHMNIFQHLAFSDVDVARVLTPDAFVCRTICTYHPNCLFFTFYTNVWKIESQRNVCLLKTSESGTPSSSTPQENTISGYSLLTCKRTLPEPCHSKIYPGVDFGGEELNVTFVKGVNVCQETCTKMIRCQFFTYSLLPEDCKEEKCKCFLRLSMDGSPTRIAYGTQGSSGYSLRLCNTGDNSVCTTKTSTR
Chain of Plasma kallikrein (P03952 391-638 limits assumed): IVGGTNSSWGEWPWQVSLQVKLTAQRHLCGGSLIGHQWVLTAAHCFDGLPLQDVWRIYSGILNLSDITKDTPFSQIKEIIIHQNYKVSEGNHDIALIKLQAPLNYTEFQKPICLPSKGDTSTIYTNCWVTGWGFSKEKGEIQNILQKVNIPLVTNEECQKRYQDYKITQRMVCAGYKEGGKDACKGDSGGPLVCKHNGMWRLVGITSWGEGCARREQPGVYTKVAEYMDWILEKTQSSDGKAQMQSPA

Compound: CCOc1cccc(CNC(=O)c2cn(Cc3ccc(Cn4cc(C)cn4)cc3)nc2C(F)(F)F)c1
- IC50: 2360 nM
